Assay [1] has as its system RPEMYC^H2B-GFP cells. Kind of assay: Mechanism-informed phenotypic screening assay (mitotic arrest, polyploidy; GE IN-Cell Analyzer 2000). It counts as cell-based. Particulars: 20 nM to 20 μM, 24, 48 or 72 hours, read-out: Min. Effective conc. for polyploidy (≥5%). The gist of the method: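 RPEMYC^H2B-GFP cells expressing Histone 2B-EGFP were treated with compounds at 20 nM to 20 μM. Mitotic arrest and DNA content were imaged at 24, 48 or 72 h. Minimal effective concentrations eliciting polyploidy are given as letter bins.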

The subject of assay [2] is colon cancer cell line SW460. Kind of assay: MTT assay of cellular proliferation, SW460. It counts as cell-based. Particulars: Homo sapiens, SW480; read-out: EC50: Concentration that inhibits 50% of proliferation. In outline:
(§1)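 Cells were grown in DMEM with 5% FBS, glutamine and pyruvate at 37 °C, 5% CO2, seeded to reach 20˜30% confluence after 15˜24 h, then exposed to compounds from 1 nM to 10 μM. Formazan from MTT was read at 570 nm, and EC50 was the concentration giving 50% inhibition of proliferation.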

In assay [3] the test system is breast cancer cell line MDA-MB-231. As to the kind of experiment: MTT assay of cellular proliferation, MDA-MB-231. Conditions: Homo sapiens, read-out: EC50: Concentration that inhibits 50% of proliferation. It counts as cell-based. The gist of the method:
as §1

Assay [4] concerns glioblastoma cell line T98G. Kind of assay: MTT assay of cellular proliferation, T98G. It counts as cell-based. Conditions: Homo sapiens, read-out: EC50: Concentration that inhibits 50% of proliferation. On the procedure: Six lung cancer cell lines (NCI-H23, NCI-H460, NCI-H596, NCI-H2170, Calu-6 and A549), two colon cancer cell lines (HCT116 and SW460), one breast cancer cell line MDA-MB-231, one gastric cancer cell line NCI-N87, one prostate cancer cell line DU145, one cervical cancer cell line Hela, and one glioblastoma cell line T98G were obtained from ATCC. The T2 HCC cell line was derived from a mouse liver cancer model initiated by a transgene of MYC (Reference). All cell lines were cultured in DMEM (Gibco, Cleveland, TN, USA) supplemented with 5% fetal bovine serum (Gibco), penicillin (100 U/mL)-streptomycin (100 μg/mL) (Gibco, Cat. No. 15140-122), 2 mM L-glutamine (Gibco, 200 mM solution, Cat. No. 25030081), and 1 mM sodium pyruvate (Gibco, 100 mM solution, Cat. No. 11360070) at 37° C. in a humidified incubator that was maintained at 5% CO2.
The MTT assay measures cellular metabolic activity as a proxy for cell viability and involves the conversion of the water-soluble yellow dye MTT [3-(4,5-dimethylthiazol-2-yl)-2,5-diphenyltetrazolium bromide] into an insoluble purple formazan by the action of mitochondrial reductase. Formazan is then solubilized and its concentration is determined by measuring the optical density (OD) value at a wavelength of 570 nm. The value is in proportional to the number of live cells with excellent linearity up to ˜10^6 cells per well. The MTT assay was used to determine the EC50 value, the concentration of a compound that leads to 50% inhibition of cellular proliferation. Briefly, cells were split when growing to the mid-Log phase. Cells in 100 μL of culture medium were seeded into each well of 96-well microplates and cultivated for 15˜24 hours to reach a confluence of 20˜30% and were then exposed to drugs at concentrations ranging from 1 nM to 10 μM. At the endpoint, 20 μL of a MTT stock solution in DMSO (5 mg/mL) was added to each well that contains […] of DMEM. The microplates were left in the cell culture incubator for 3˜4 h before subjected to solubilization and determination of formazan at A570 in a microplate reader (BioTek ELX808iu). […] Therefore, these compounds might hold a broad utility in the treatment of a large variety of human malignancies.

The subject of assay [5] is lung cancer cell line NCI-H460. As to the kind of experiment: Minimal effective concentration that elicits polyploidy, NCI-H460. It counts as cell-based, human.
For assay [6], the system named is lung cancer cell line NCI-H2170. As to the kind of experiment: Minimal effective concentration that elicits polyploidy, NCI-H2170. It counts as cell-based, human.
Assay [7] has as its system lung cancer cell line A549. Kind of assay: Minimal effective concentration that elicits polyploidy, A549. It counts as cell-based. Conditions: Homo sapiens, read-out: MECP: Minimal effective concentration that elicits polyploidy.
Assay [8] concerns SW480. As to the kind of experiment: Minimal effective concentration that elicits polyploidy, SW480. It counts as cell-based. Conditions: Homo sapiens, read-out: MECP: Minimal effective concentration that elicits polyploidy.
The subject of assay [9] is glioblastoma cell line T98G. As to the kind of experiment: Minimal effective concentration that elicits polyploidy, T98G. It counts as cell-based, human.
In assay [10] the test system is breast cancer cell line MDA-MB-231. Kind of assay: Minimal effective concentration that elicits polyploidy, MDA-MB-231. Conditions: Homo sapiens, read-out: MECP: Minimal effective concentration that elicits polyploidy. It counts as cell-based.
The test system of assay [11] is gastric cancer cell line NCI-N87. As to the kind of experiment: Minimal effective concentration that elicits polyploidy, NCI-N87. It counts as cell-based. Particulars: Homo sapiens, read-out: MECP: Minimal effective concentration that elicits polyploidy.
Assay [12] has as its system lung cancer cell line Calu-6. Kind of assay: Minimal effective concentration that elicits polyploidy, Calu-6. It counts as cell-based, human.
Assay [13] relates to RPEMYC^H2B-GFP cells. Kind of assay: Mechanism-informed phenotypic screening assay (mitotic arrest, polyploidy; GE IN-Cell Analyzer 2000). Particulars: 20 nM to 20 μM, 24, 48 or 72 hours, read-out: Mitotic Arrest (≥5%). It counts as cell-based.

The results in this text go back to patent publication US20240262803A1, “COMPOUNDS, COMPOSITIONS AND METHODS OF TREATING DISORDERS” (Chungdu Anticancer Bioscience Ltd, priority 2021, published 2024).

Molecules are shown by their SMILES. Where two headings read alike, the source gives them in different places.

As for `COC(=O)c1cc(OC)cc(Oc2ncccc2-c2ccncc2)c1` [Compound 2, Methyl 3-([3,4′-bipyridin]-2-yloxy)-5-methoxybenzoate], the minimal effective concentration is 1 µM in assay [1]; 1 to 10 µM in assay [7]; 0.001 to 1 µM in [8]; 0.001 to 1 µM in assay [10]; 0.001 to 1 µM in assay [11]; 1 µM in [13]. The EC50 in assay [2], in assay [3] and in [4] was 1 to 1000 nM each time. Also, the “MECP: Minimal effective concentration that elicits polyploidy” value in assay [5] is recorded as “B (B: 1 μM < conc. ≤ 10 μM)”; in [6] it was “A (A: 1 nM < conc. ≤ 1 μM)”; in assay [9], “A (A: 1 nM < conc. ≤ 1 μM)”; in assay [12] it was “A (A: 1 nM < conc. ≤ 1 μM)”.

Regarding `COC(=O)c1cc(OC)cc(Oc2ncccc2-c2ccnc(N)n2)c1` [Compound 23, Methyl 3-((3-(2-aminopyrimidin-4-yl)pyridin-2-yl)oxy)-5-methoxybenzoate], the minimal effective concentration is 1 µM in assay [1]; 1 to 10 µM in assay [7]; 0.001 to 1 µM in assay [8]; 0.001 to 1 µM in assay [10]; 0.001 to 1 µM in assay [11]; 1 µM in assay [13]. Besides, the EC50 in [2] lay within 1 to 1000 nM; in assay [3], 1 to 1000 nM; in [4], 10000 to 30000 nM. The “MECP: Minimal effective concentration that elicits polyploidy” value is reported as “B (B: 1 μM < conc. ≤ 10 μM)” in assay [5], “A (A: 1 nM < conc. ≤ 1 μM)” in assay [6], “A (A: 1 nM < conc. ≤ 1 μM)” in assay [9] and “A (A: 1 nM < conc. ≤ 1 μM)” in [12].

Take `COC(=O)c1cc(Oc2ncccc2-c2ccncc2)cc(C(=O)OC)c1` [Compound 1, Dimethyl 5-([3,4′-bipyridin]-2-yloxy)isophthalate]: the minimal effective concentration in assay [1] was 1 µM; in assay [7], 1 to 10 µM; in assay [10], 0.001 to 1 µM; in assay [11], 0.001 to 1 µM; in assay [13] it was 1 µM. Also, the EC50 in assay [3] and in assay [4] was 1 to 1000 nM each time. The “MECP: Minimal effective concentration that elicits polyploidy” value is “B (B: 1 μM < conc. ≤ 10 μM)” in [5], “A (A: 1 nM < conc. ≤ 1 μM)” in [6], “A (A: 1 nM < conc. ≤ 1 μM)” in assay [9] and “A (A: 1 nM < conc. ≤ 1 μM)” in [12].

As for `COC(=O)c1cc(Oc2ncccc2-c2ccnc(N)n2)cc(C(=O)OC)c1` [Compound 21, dimethyl 5-((3-(2-aminopyrimidin-4-yl)pyridin-2-yl)oxy)isophthalate], the minimal effective concentration in assay [1] was 1 µM; in [10] it was 0.001 to 1 µM; in assay [11] it was 0.001 to 1 µM; in [13] it was 1 µM. Moreover, the EC50 in [3] lay in the range of 1 to 1000 nM; in assay [4], 1000 to 10000 nM. The “MECP: Minimal effective concentration that elicits polyploidy” value in [5] is given as “B (B: 1 μM < conc. ≤ 10 μM)”; in assay [6], “A (A: 1 nM < conc. ≤ 1 μM)”; in assay [9], “B (B: 1 μM < conc. ≤ 10 μM)”; in assay [12], “A (A: 1 nM < conc. ≤ 1 μM)”.
